Assay results as given in ChEMBL document CHEMBL5715260, “Selectivity Literature for EUbOPEN Chemogenomic Library” (2024).

Legend:
Set-up in all cases: recommended concentration 1 uM
[1] = target: T1, Hepatocyte nuclear factor 4-alpha (Homo sapiens) (UniProt P41235); experiment: Selectivity interaction (Reporter gene assay) EUB0000564a HNF4A
T1 sequence (whole entry): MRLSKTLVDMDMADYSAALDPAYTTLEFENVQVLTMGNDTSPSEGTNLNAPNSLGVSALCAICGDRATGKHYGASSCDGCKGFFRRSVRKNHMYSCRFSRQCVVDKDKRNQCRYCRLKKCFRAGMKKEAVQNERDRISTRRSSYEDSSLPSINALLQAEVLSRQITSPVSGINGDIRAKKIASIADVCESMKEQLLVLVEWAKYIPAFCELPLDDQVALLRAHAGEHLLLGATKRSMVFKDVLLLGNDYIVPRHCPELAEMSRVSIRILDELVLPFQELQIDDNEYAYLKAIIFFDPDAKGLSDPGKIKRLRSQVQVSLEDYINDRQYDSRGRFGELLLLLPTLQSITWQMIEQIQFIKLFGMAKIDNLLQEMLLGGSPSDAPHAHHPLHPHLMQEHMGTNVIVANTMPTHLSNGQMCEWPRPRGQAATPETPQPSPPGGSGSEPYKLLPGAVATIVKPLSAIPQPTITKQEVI

[2] = target: T2, Nuclear receptor subfamily 2 group C member 1 (Homo sapiens) (UniProt P13056); experiment: Selectivity interaction (Reporter gene assay) EUB0000564a NR2C1
T2 sequence (whole entry): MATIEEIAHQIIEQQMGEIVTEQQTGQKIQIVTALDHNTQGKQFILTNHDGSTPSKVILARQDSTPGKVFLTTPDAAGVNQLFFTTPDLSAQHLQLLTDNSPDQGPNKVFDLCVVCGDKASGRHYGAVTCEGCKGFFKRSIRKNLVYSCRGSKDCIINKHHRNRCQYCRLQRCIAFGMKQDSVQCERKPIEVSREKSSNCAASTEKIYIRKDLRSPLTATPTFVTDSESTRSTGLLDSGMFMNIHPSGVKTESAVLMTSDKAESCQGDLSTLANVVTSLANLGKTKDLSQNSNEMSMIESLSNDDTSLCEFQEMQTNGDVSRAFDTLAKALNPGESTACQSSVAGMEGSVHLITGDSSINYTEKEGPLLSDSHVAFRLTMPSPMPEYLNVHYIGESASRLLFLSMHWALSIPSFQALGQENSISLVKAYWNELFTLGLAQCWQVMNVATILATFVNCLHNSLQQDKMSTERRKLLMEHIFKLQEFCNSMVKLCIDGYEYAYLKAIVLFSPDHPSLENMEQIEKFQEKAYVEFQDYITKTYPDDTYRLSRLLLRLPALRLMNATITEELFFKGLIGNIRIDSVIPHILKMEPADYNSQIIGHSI

[3] = target: Steroidogenic factor 1 (Homo sapiens) (UniProt Q13285); experiment: Selectivity interaction (Reporter gene assay) EUB0000564a NR5A1
[4] = target: Nuclear receptor subfamily 4immunitygroup A member 1 (Homo sapiens) (UniProt P22736); experiment: Selectivity interaction (Reporter gene assay) EUB0000564a NR4A1
[5] = target: T3, Alpha trans-inducing protein (Human alphaherpesvirus 1) (UniProt A0A5J6DW59); experiment: Selectivity interaction (Reporter gene assay) EUB0000564a UL48
[6] = target: T4, Retinoic acid receptor RXR-alpha (Homo sapiens) (UniProt P19793); experiment: Selectivity interaction (Reporter gene assay) EUB0000564a RXRA; conditions: reference bexarotene 1 uM, Selectivity number of off-targets 0.0, Selectivity number of targets 1.0, Source Knowledge inhouse
T4 sequence (whole entry): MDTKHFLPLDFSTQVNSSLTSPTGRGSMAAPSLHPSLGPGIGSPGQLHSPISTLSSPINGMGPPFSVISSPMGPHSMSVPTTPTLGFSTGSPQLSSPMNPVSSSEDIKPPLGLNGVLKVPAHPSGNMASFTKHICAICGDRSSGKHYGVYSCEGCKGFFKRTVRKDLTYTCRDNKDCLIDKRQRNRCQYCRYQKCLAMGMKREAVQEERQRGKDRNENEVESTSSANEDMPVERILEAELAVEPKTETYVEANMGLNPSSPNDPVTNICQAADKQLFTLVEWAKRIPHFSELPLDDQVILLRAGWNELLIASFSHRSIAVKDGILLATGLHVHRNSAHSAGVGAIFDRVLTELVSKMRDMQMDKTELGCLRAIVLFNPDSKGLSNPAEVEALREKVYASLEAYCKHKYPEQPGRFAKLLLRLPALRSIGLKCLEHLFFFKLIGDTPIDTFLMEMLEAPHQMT

[7] = target: Nuclear receptor subfamily 2 group E member 1 (Homo sapiens) (UniProt Q9Y466); experiment: Selectivity interaction (Reporter gene assay) EUB0000564a NR2E1
[8] = target: T2, Nuclear receptor subfamily 2 group C member 1 (Homo sapiens); experiment: Selectivity interaction (Reporter gene assay) EUB0000569a NR2C1
[9] = target: Peroxisome proliferator-activated receptor alpha (Homo sapiens) (UniProt Q07869); experiment: Selectivity interaction (Reporter gene assay) EUB0000569a PPARA; conditions: screened at recom. conc., Selectivity number of off-targets 2.0, Selectivity number of targets 19.0, Source Knowledge inhouse
[10] = target: Nuclear receptor subfamily 4immunitygroup A member 1 (Homo sapiens) (UniProt P22736); experiment: Selectivity interaction (Reporter gene assay) EUB0000569a NR4A1
[11] = target: T3, Alpha trans-inducing protein (Human alphaherpesvirus 1); experiment: Selectivity interaction (Reporter gene assay) EUB0000569a UL48
[12] = target: T5, Peroxisome proliferator-activated receptor gamma (Homo sapiens) (UniProt P37231); experiment: Selectivity interaction (Reporter gene assay) EUB0000569a PPARG; conditions: screened at recom. conc., Selectivity number of off-targets 2.0, Selectivity number of targets 19.0, Source Knowledge inhouse
T5 sequence (whole entry): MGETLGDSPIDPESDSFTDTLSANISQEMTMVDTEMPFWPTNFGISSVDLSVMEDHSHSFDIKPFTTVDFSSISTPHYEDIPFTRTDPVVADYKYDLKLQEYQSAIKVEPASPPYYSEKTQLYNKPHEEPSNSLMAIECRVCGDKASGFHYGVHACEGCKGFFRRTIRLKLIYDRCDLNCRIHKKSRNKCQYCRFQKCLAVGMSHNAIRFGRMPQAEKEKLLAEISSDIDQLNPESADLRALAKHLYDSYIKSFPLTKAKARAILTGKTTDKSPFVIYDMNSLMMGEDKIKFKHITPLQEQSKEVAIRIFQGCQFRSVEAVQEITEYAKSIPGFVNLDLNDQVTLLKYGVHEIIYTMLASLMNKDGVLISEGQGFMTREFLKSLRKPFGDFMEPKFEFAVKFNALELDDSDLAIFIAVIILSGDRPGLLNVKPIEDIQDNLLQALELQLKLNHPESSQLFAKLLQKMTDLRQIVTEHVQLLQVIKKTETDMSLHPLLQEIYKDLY

[13] = target: Nuclear receptor subfamily 2 group E member 1 (Homo sapiens) (UniProt Q9Y466); experiment: Selectivity interaction (Reporter gene assay) EUB0000569a NR2E1
[14] = target: Steroidogenic factor 1 (Homo sapiens) (UniProt Q13285); experiment: Selectivity interaction (Reporter gene assay) EUB0000569a NR5A1
[15] = target: T4, Retinoic acid receptor RXR-alpha (Homo sapiens); experiment: Selectivity interaction (Reporter gene assay) EUB0000569a RXRA
[16] = target: T1, Hepatocyte nuclear factor 4-alpha (Homo sapiens); experiment: Selectivity interaction (Reporter gene assay) EUB0000569a HNF4A
[17] = target: Steroidogenic factor 1 (Homo sapiens) (UniProt Q13285); experiment: Selectivity interaction (Reporter gene assay) EUB0000567a NR5A1
[18] = target: T3, Alpha trans-inducing protein (Human alphaherpesvirus 1); experiment: Selectivity interaction (Reporter gene assay) EUB0000567a UL48
[19] = target: T1, Hepatocyte nuclear factor 4-alpha (Homo sapiens); experiment: Selectivity interaction (Reporter gene assay) EUB0000567a HNF4A
[20] = target: Nuclear receptor subfamily 2 group E member 1 (Homo sapiens) (UniProt Q9Y466); experiment: Selectivity interaction (Reporter gene assay) EUB0000567a NR2E1
[21] = target: Nuclear receptor subfamily 4immunitygroup A member 1 (Homo sapiens) (UniProt P22736); experiment: Selectivity interaction (Reporter gene assay) EUB0000567a NR4A1
[22] = target: T4, Retinoic acid receptor RXR-alpha (Homo sapiens); experiment: Selectivity interaction (Reporter gene assay) EUB0000567a RXRA
[23] = target: T2, Nuclear receptor subfamily 2 group C member 1 (Homo sapiens); experiment: Selectivity interaction (Reporter gene assay) EUB0000567a NR2C1
[24] = target: Nuclear receptor subfamily 4immunitygroup A member 1 (Homo sapiens) (UniProt P22736); experiment: Selectivity interaction (Reporter gene assay) EUB0000566a NR4A1
[25] = target: T4, Retinoic acid receptor RXR-alpha (Homo sapiens); experiment: Selectivity interaction (Reporter gene assay) EUB0000566a RXRA
[26] = target: Steroidogenic factor 1 (Homo sapiens) (UniProt Q13285); experiment: Selectivity interaction (Reporter gene assay) EUB0000566a NR5A1
[27] = target: Nuclear receptor subfamily 2 group E member 1 (Homo sapiens) (UniProt Q9Y466); experiment: Selectivity interaction (Reporter gene assay) EUB0000566a NR2E1
[28] = target: T2, Nuclear receptor subfamily 2 group C member 1 (Homo sapiens); experiment: Selectivity interaction (Reporter gene assay) EUB0000566a NR2C1
[29] = target: T1, Hepatocyte nuclear factor 4-alpha (Homo sapiens); experiment: Selectivity interaction (Reporter gene assay) EUB0000566a HNF4A
[30] = target: T3, Alpha trans-inducing protein (Human alphaherpesvirus 1); experiment: Selectivity interaction (Reporter gene assay) EUB0000566a UL48
[31] = target: T4, Retinoic acid receptor RXR-alpha (Homo sapiens); experiment: Selectivity interaction (Reporter gene assay) EUB0000570a RXRA; conditions: reference bexarotene 1 uM, Selectivity number of off-targets 0.0, Selectivity number of targets 1.0, Source Knowledge inhouse
[32] = target: Nuclear receptor subfamily 2 group E member 1 (Homo sapiens) (UniProt Q9Y466); experiment: Selectivity interaction (Reporter gene assay) EUB0000570a NR2E1
[33] = target: T3, Alpha trans-inducing protein (Human alphaherpesvirus 1); experiment: Selectivity interaction (Reporter gene assay) EUB0000570a UL48
[34] = target: T1, Hepatocyte nuclear factor 4-alpha (Homo sapiens); experiment: Selectivity interaction (Reporter gene assay) EUB0000570a HNF4A
[35] = target: Steroidogenic factor 1 (Homo sapiens) (UniProt Q13285); experiment: Selectivity interaction (Reporter gene assay) EUB0000570a NR5A1
[36] = target: T2, Nuclear receptor subfamily 2 group C member 1 (Homo sapiens); experiment: Selectivity interaction (Reporter gene assay) EUB0000570a NR2C1
[37] = target: Nuclear receptor subfamily 4immunitygroup A member 1 (Homo sapiens) (UniProt P22736); experiment: Selectivity interaction (Reporter gene assay) EUB0000570a NR4A1

Nuclear receptor subfamily 4immunitygroup A member 1 (Homo sapiens), sequence (P22736 whole entry): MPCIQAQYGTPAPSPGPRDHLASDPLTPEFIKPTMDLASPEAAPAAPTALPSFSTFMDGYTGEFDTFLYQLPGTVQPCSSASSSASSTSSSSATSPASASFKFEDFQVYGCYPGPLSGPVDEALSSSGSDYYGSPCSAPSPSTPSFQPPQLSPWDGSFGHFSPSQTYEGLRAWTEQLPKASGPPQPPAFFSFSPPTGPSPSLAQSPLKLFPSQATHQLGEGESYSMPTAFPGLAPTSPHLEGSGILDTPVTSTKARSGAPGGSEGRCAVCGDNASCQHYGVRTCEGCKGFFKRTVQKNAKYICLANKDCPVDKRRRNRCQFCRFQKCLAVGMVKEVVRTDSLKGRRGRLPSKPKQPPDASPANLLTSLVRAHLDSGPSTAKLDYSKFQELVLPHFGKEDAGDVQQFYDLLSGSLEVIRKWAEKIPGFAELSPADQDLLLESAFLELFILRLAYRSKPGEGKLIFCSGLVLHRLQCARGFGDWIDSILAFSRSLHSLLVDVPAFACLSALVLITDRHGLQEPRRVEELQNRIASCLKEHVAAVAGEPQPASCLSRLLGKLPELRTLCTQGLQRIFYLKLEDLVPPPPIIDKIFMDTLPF
T3 sequence (A0A5J6DW59 as listed by the source): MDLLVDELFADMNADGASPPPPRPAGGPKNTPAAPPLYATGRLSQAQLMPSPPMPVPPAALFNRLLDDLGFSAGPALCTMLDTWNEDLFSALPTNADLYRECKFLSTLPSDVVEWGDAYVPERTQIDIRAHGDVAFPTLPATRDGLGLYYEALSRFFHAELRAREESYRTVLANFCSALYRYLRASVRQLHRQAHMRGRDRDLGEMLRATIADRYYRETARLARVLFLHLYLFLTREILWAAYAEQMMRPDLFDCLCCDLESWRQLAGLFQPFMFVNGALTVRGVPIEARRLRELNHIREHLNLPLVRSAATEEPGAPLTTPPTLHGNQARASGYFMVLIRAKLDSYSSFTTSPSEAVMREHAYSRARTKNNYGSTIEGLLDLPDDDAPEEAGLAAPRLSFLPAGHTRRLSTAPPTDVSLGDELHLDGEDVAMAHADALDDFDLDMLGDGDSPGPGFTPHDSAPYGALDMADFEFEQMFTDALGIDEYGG
Nuclear receptor subfamily 2 group E member 1 (Homo sapiens), sequence (Q9Y466 whole entry): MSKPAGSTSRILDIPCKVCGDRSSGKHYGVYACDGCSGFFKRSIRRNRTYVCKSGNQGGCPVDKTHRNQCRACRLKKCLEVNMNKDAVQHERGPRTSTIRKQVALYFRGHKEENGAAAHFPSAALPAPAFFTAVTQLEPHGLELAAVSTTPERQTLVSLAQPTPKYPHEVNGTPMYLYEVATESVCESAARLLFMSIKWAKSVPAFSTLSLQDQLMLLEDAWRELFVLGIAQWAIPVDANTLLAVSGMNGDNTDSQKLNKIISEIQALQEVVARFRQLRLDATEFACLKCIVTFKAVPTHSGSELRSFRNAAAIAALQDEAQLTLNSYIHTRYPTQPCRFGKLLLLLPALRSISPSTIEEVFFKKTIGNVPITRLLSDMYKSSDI
Steroidogenic factor 1 (Homo sapiens), sequence (Q13285 whole entry): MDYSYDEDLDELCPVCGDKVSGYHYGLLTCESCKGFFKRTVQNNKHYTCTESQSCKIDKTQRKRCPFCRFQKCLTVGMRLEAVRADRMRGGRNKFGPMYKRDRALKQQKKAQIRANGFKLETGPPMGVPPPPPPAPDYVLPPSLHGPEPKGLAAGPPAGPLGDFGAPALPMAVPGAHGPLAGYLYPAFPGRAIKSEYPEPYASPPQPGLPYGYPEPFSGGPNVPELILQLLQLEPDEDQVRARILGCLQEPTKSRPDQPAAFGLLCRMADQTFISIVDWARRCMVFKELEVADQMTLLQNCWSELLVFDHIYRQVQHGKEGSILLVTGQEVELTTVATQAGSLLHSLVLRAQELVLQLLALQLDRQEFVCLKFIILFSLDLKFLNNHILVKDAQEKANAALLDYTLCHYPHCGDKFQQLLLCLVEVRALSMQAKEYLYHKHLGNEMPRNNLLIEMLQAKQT
Peroxisome proliferator-activated receptor alpha (Homo sapiens), sequence (Q07869 whole entry): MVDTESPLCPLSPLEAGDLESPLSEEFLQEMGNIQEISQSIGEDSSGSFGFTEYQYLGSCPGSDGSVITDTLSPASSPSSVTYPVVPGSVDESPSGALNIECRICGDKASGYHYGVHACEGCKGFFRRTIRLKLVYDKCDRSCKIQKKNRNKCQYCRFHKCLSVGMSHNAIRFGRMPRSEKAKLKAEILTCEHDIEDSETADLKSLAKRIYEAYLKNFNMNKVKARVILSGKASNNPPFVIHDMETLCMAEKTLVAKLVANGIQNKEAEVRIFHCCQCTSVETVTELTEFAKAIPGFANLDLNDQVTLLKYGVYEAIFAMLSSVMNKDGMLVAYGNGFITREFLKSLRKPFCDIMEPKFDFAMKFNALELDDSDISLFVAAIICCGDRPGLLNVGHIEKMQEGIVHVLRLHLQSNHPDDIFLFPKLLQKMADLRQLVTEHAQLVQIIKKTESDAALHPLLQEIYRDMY

## COc1ccc(-c2ccc3cc(C(=O)O)ccc3c2)cc1C12CC3CC(CC(C3)C1)C2
[1]
  Fold activation: 1
[2]
  Fold activation: 1.03
[3]
  Remaining activity: 0.896
[4]
  Fold activation: 1.11
[5]
  P-value: 0.00282
[6]
  Relative activation: 0.848%
[7]
  Remaining activity: 0.926

## Cc1cc(SCc2sc(-c3ccc(C(F)(F)F)c(F)c3)nc2C)ccc1OCC(=O)O
[8]
  Fold activation: 1.31
[9]
  Fold activation: 14.8
[10]
  Fold activation: 1.17
[11]
  P-value: 0.0031
[12]
  Fold activation: 10.5
[13]
  Fold activation: 1.36
[14]
  Fold activation: 1.02
[15]
  Relative activation: 0.693%
[16]
  Fold activation: 1.11

## CC1(C)CCC(C)(C)c2cc(C(=O)Nc3ccc(C(=O)O)cc3)ccc21
[17]
  Remaining activity: 0.908
[18]
  P-value: 0.0055
[19]
  Fold activation: 1.07
[20]
  Remaining activity: 0.642
[21]
  Fold activation: 1.04
[22]
  Relative activation: 0.898%
[23]
  Remaining activity: 0.976

## CC1(C)CCC(C)(C)c2cc(NC(=O)c3ccc(C(=O)O)cc3)ccc21
[24]
  Fold activation: 1.31
[25]
  Relative activation: 0.52%
[26]
  Remaining activity: 0.902
[27]
  Remaining activity: 0.763
[28]
  Remaining activity: 0.903
[29]
  Fold activation: 0.997
[30]
  P-value: 2.26e-06

## CN(CCOc1ccc(C[C@H](Nc2ccccc2C(=O)c2ccccc2)C(=O)O)cc1)c1ccccn1
[31]
  Relative activation: 0.731%
[32]
  Remaining activity: 0.776
[33]
  P-value: 1.12e-05
[34]
  Remaining activity: 0.831
[35]
  Remaining activity: 0.849
[36]
  Fold activation: 1.03
[37]
  Remaining activity: 0.85
